“And” between values parts separate entries of the source, which are not always exact repeats. Equal values may be shown once. Inconclusive results and toxic doses are left out. Rule for the calls: active = survival T/C of 150% or more; inactive = T/C below 125% in these data.
System: CD2F1 mice, L1210 leukemia ip, survival T/C
Assay: NCI In Vivo Anticancer Drug Screen. Data for tumor model L1210 Leukemia (intraperitoneal) in CD2F1 (CDF1) mice
Settings: higher = longer survival
Summary of the method: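 Activity against a transplanted murine tumor was judged by comparing the compound group with a vehicle group. The outcome in the treated animals was divided by that in the controls.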

[1] = endpoint: mean survival time, dose: 25.0 mg/kg/injection, schedule: Q01DX009 (ip), vehicle: saline with Tween-80
[2] = endpoint: mean survival time, dose: 100.0 mg/kg/injection, schedule: Q04DX002 (ip), vehicle: saline with Tween-80
[3] = endpoint: mean survival time, dose: 200.0 mg/kg/injection, schedule: Q04DX002 (ip), vehicle: saline with Tween-80
[4] = endpoint: mean survival time, dose: 400.0 mg/kg/injection, schedule: Q04DX002 (ip), vehicle: saline with Tween-80
[5] = endpoint: mean survival time, dose: 100.0 mg/kg/injection, schedule: Q04DX003 (ip), vehicle: saline with Tween-80
[6] = endpoint: mean survival time, dose: 200.0 mg/kg/injection, schedule: Q04DX003 (ip), vehicle: saline with Tween-80
[7] = endpoint: mean survival time, dose: 0.5 mg/kg/injection, schedule: Q01DX009 (ip), vehicle: saline
[8] = endpoint: mean survival time, dose: 1.0 mg/kg/injection, schedule: Q01DX009 (ip), vehicle: saline
[9] = endpoint: mean survival time, dose: 100.0 mg/kg/injection, schedule: Q01DX001 (ip), vehicle: saline with Tween-80
[10] = endpoint: mean survival time, dose: 200.0 mg/kg/injection, schedule: Q01DX001 (ip), vehicle: saline with Tween-80
[11] = endpoint: mean survival time, dose: 400.0 mg/kg/injection, schedule: Q01DX001 (ip), vehicle: saline with Tween-80

Measured: T/C

[Cl][Pt+2][Cl].[NH-]C(c1ccccc1)C([NH-])c1ccccc1 (stereo unspecified)
inactive: endpoint: mean survival time, dose: 6.25 mg/kg/injection, schedule: Q04DX003 (ip), vehicle: saline with Tween-80 112 % of control and 110 % of control and 96 % of control | endpoint: mean survival time, dose: 12.5 mg/kg/injection, schedule: Q04DX003 (ip), vehicle: saline with Tween-80 102 % of control and 114 % of control and 106 % of control | endpoint: mean survival time, dose: 25.0 mg/kg/injection, schedule: Q04DX003 (ip), vehicle: saline with Tween-80 120 % of control and 124 % of control and 114 % of control | endpoint: median survival time, dose: 10.0 mg/kg/injection, schedule: Q04DX003 (ip), vehicle: Klucel (hydroxypropylcellulose) (HPC) 111 % of control | endpoint: median survival time, dose: 20.0 mg/kg/injection, schedule: Q04DX003 (ip), vehicle: Klucel (hydroxypropylcellulose) (HPC) 113 % of control | endpoint: median survival time, dose: 40.0 mg/kg/injection, schedule: Q04DX003 (ip), vehicle: Klucel (hydroxypropylcellulose) (HPC) 122 % of control | endpoint: median survival time, dose: 50.0 mg/kg/injection, schedule: Q04DX003 (ip), vehicle: Klucel (hydroxypropylcellulose) (HPC) 101 % of control | endpoint: median survival time, dose: 80.0 mg/kg/injection, schedule: Q04DX003 (ip), vehicle: Klucel (hydroxypropylcellulose) (HPC) 112 % of control | endpoint: median survival time, dose: 100.0 mg/kg/injection, schedule: Q04DX003 (ip), vehicle: Klucel (hydroxypropylcellulose) (HPC) 107 % of control | endpoint: median survival time, dose: 200.0 mg/kg/injection, schedule: Q04DX003 (ip), vehicle: Klucel (hydroxypropylcellulose) (HPC) 107 % of control

CC(O)C1OC(n2cnc3c(N)ncnc32)CC1N (stereo unspecified)
inactive: endpoint: mean survival time, dose: 12.5 mg/kg/injection, schedule: Q01DX005 (ip), vehicle: distilled water + Tween-80 101 % of control | endpoint: mean survival time, dose: 25.0 mg/kg/injection, schedule: Q01DX005 (ip), vehicle: distilled water + Tween-80 103 % of control | endpoint: mean survival time, dose: 50.0 mg/kg/injection, schedule: Q01DX005 (ip), vehicle: distilled water + Tween-80 100 % of control | endpoint: mean survival time, dose: 100.0 mg/kg/injection, schedule: Q01DX005 (ip), vehicle: distilled water + Tween-80 100 % of control | endpoint: mean survival time, dose: 200.0 mg/kg/injection, schedule: Q01DX005 (ip), vehicle: distilled water + Tween-80 100 % of control

CN(C)c1ccc(/C=C2\CCC/C(=C\c3ccc(N(C)C)cc3)C2=O)cc1
inactive: endpoint: mean survival time, dose: 100.0 mg/kg/injection, schedule: Q01DX009 (ip), vehicle: Klucel (hydroxypropylcellulose) (HPC) 95 % of control | endpoint: mean survival time, dose: 200.0 mg/kg/injection, schedule: Q01DX009 (ip), vehicle: Klucel (hydroxypropylcellulose) (HPC) 101 % of control | endpoint: mean survival time, dose: 400.0 mg/kg/injection, schedule: Q01DX009 (ip), vehicle: Klucel (hydroxypropylcellulose) (HPC) 95 % of control

CCCCCCCCCCCCCCOS(=O)(=O)O
inactive: endpoint: mean survival time, dose: 37.5 mg/kg/injection, schedule: Q01DX009 (ip), vehicle: saline 93 % of control | endpoint: mean survival time, dose: 75.0 mg/kg/injection, schedule: Q01DX009 (ip), vehicle: saline 93 % of control

CCCCCCCCC/C=C(/CC(=O)O)C(=O)O
inactive: [1] 92 % of control | endpoint: mean survival time, dose: 50.0 mg/kg/injection, schedule: Q01DX009 (ip), vehicle: saline with Tween-80 96 % of control | endpoint: mean survival time, dose: 100.0 mg/kg/injection, schedule: Q01DX009 (ip), vehicle: saline with Tween-80 102 % of control

CCOC(=O)C(C#N)c1ccccc1 (stereo unspecified)
inactive: [2] 94 % of control | [3] 94 % of control

O=C(c1cccnc1)c1c[nH]c2ccccc12
inactive: [2] 101 % of control | [3] 97 % of control | [4] 97 % of control

CCCCCCCCCCCCCCCCNC(=O)C[N+](C)(C)Cc1ccccc1
inactive: endpoint: mean survival time, dose: 5.0 mg/kg/injection, schedule: Q04DX003 (ip), vehicle: saline with Tween-80 100 % of control | endpoint: mean survival time, dose: 10.0 mg/kg/injection, schedule: Q04DX003 (ip), vehicle: saline with Tween-80 101 % of control

CCN1CCCC(Nc2nc(Nc3cc(Cl)cc(Cl)c3)nc3ccc(Cl)cc23)C1 (stereo unspecified)
inactive: [1] 103 % of control | [5] 90 % of control

CCCCCCCCCCCCCCCC[N+](C)(CCO)Cc1ccccc1 (stereo unspecified)
inactive: endpoint: mean survival time, dose: 3.13 mg/kg/injection, schedule: Q04DX002 (ip), vehicle: saline with Tween-80 100 % of control | endpoint: mean survival time, dose: 6.25 mg/kg/injection, schedule: Q04DX002 (ip), vehicle: saline with Tween-80 100 % of control | endpoint: mean survival time, dose: 12.5 mg/kg/injection, schedule: Q04DX002 (ip), vehicle: saline with Tween-80 96 % of control

CC(=O)Nc1ncc([N+](=O)[O-])s1
inactive: endpoint: mean survival time, dose: 50.0 mg/kg/injection, schedule: Q04DX003 (ip), vehicle: saline with Tween-80 100 % of control | [5] 105 % of control | [6] 100 % of control

CCCCCCCCCCCCCCCC(=O)O[C@@]12C[C@@H](C)[C@@]3(O)[C@@H](C=C(CO)C[C@]4(O)C(=O)C(C)=C[C@@H]34)[C@@H]1C2(C)C
inactive: endpoint: mean survival time, dose: 0.06 mg/kg/injection, schedule: Q01DX009 (ip), vehicle: other 98 % of control | endpoint: mean survival time, dose: 0.12 mg/kg/injection, schedule: Q01DX009 (ip), vehicle: saline 103 % of control | endpoint: mean survival time, dose: 0.13 mg/kg/injection, schedule: Q01DX009 (ip), vehicle: other 88 % of control | endpoint: mean survival time, dose: 0.25 mg/kg/injection, schedule: Q01DX009 (ip), vehicle: other 94 % of control | endpoint: mean survival time, dose: 0.25 mg/kg/injection, schedule: Q01DX009 (ip), vehicle: saline 102 % of control | endpoint: mean survival time, dose: 0.5 mg/kg/injection, schedule: Q01DX009 (ip), vehicle: other 102 % of control | [7] 103 % of control | [8] 102 % of control

c1ccc(-c2csc3c4ccccc4c4ccccc4[n+]23)cc1
inactive: [7] 104 % of control | [8] 112 % of control | endpoint: mean survival time, dose: 2.0 mg/kg/injection, schedule: Q01DX009 (ip), vehicle: saline 112 % of control | endpoint: mean survival time, dose: 4.0 mg/kg/injection, schedule: Q01DX009 (ip), vehicle: saline 106 % of control | endpoint: mean survival time, dose: 8.0 mg/kg/injection, schedule: Q01DX009 (ip), vehicle: saline 101 % of control

N#Cc1cc(N2CC2)c([N+](=O)[O-])cc1[N+](=O)[O-]
inactive: endpoint: mean survival time, dose: 100.0 mg/kg/injection, schedule: Q01DX001 (ip), vehicle: Klucel (hydroxypropylcellulose) (HPC) 102 % of control | endpoint: mean survival time, dose: 200.0 mg/kg/injection, schedule: Q01DX001 (ip), vehicle: Klucel (hydroxypropylcellulose) (HPC) 103 % of control | endpoint: mean survival time, dose: 400.0 mg/kg/injection, schedule: Q01DX001 (ip), vehicle: Klucel (hydroxypropylcellulose) (HPC) 103 % of control

CCCCNC(=O)c1ccc2c(c1)C(=O)N(CCCC)C2=O
inactive: [2] 101 % of control | [3] 104 % of control | [4] 93 % of control

[Cl][Pt+2][Cl].[NH-]Cc1ccccc1.[NH-]Cc1ccccc1
inactive: endpoint: mean survival time, dose: 50.0 mg/kg/injection, schedule: Q01DX001 (ip), vehicle: saline with Tween-80 110 % of control | [9] 110 % of control | [10] 110 % of control

CCOC(=O)c1c(C)c2c(n1C)CC/C(=C\N1CCOCC1)C2=O
inactive: [2] 93 % of control | [3] 93 % of control | [4] 96 % of control

O=C(Nc1ccc2ccccc2c1)OC1CCS(=O)(=O)C1 (stereo unspecified)
inactive: endpoint: mean survival time, dose: 75.0 mg/kg/injection, schedule: Q04DX003 (ip), vehicle: saline 102 % of control | endpoint: mean survival time, dose: 150.0 mg/kg/injection, schedule: Q04DX003 (ip), vehicle: saline 102 % of control | endpoint: mean survival time, dose: 300.0 mg/kg/injection, schedule: Q04DX003 (ip), vehicle: saline 98 % of control

O=C(CBr)Nc1ccc2[nH]c3cnccc3c2c1
inactive: [2] 101 % of control | [3] 104 % of control | [4] 97 % of control

CC/C1=C/N(C=O)CCc2c([nH]c3ccccc23)C(C(=O)OC)(c2cc3c(cc2OC)N(C)C2C(O)(C(=O)OC)C(OC(C)=O)C4(CC)C=CCN5CCC32C54)CC(=O)C1 (stereo unspecified)
inactive: endpoint: mean survival time, dose: 50.0 mg/kg/injection, schedule: Q01DX001 (ip), vehicle: saline 107 % of control | endpoint: mean survival time, dose: 100.0 mg/kg/injection, schedule: Q01DX001 (ip), vehicle: saline 102 % of control | endpoint: mean survival time, dose: 200.0 mg/kg/injection, schedule: Q01DX001 (ip), vehicle: saline 96 % of control

CN(N=Nc1ccc(C(N)=O)cc1)C(C)(C)C
inactive: endpoint: mean survival time, dose: 18.75 mg/kg/injection, schedule: Q01DX009 (ip), vehicle: Klucel (hydroxypropylcellulose) (HPC) 97 % of control | endpoint: mean survival time, dose: 37.5 mg/kg/injection, schedule: Q01DX009 (ip), vehicle: Klucel (hydroxypropylcellulose) (HPC) 101 % of control | endpoint: mean survival time, dose: 75.0 mg/kg/injection, schedule: Q01DX009 (ip), vehicle: Klucel (hydroxypropylcellulose) (HPC) 100 % of control | endpoint: mean survival time, dose: 150.0 mg/kg/injection, schedule: Q01DX009 (ip), vehicle: Klucel (hydroxypropylcellulose) (HPC) 106 % of control | endpoint: mean survival time, dose: 300.0 mg/kg/injection, schedule: Q01DX009 (ip), vehicle: Klucel (hydroxypropylcellulose) (HPC) 119 % of control

CC(=O)Nc1cccc2ccc3c4ccccc4ccc3c12
inactive: [5] 86 % of control | [6] 89 % of control | endpoint: mean survival time, dose: 400.0 mg/kg/injection, schedule: Q04DX003 (ip), vehicle: saline with Tween-80 98 % of control

O=C1/C(=N/Nc2ccccc2)c2cccc3cccc1c23
inactive: [9] 97 % of control | [10] 100 % of control | [11] 106 % of control

CNC(=O)Oc1cccc(NC(=O)OCCCCl)c1
inactive: [9] 100 % of control | [10] 105 % of control | [11] 105 % of control

From PubChem BioAssay AID256 (DTP/NCI, 2004)
